Source: the NIST ThermoML archive (doi:10.1021/je800110r)
Numbers after ± are expanded uncertainties.

Conditions: Liquid, Vibrating tube method

Work on `CCCCCCCCCC` [decane] yielded a mass density (283.15 K, 31598 kPa) of 758 ± 2.1 kg/m3, a mass density (283.15 K, 31615 kPa) of 758 ± 2.1 kg/m3 and a mass density (283.15 K, 31631 kPa) of 758 ± 2.1 kg/m3. It also gave a mass density (283.15 K, 31657 kPa) of 758.2 ± 2.1 kg/m3, a mass density (283.15 K, 31680 kPa) of 758 ± 2.1 kg/m3 and a mass density (283.15 K, 31697 kPa) of 758.1 ± 2.1 kg/m3. For the same compound, the mass density (283.15 K, 31724 kPa) was 758.2 ± 2.1 kg/m3, the mass density (283.15 K, 31749 kPa) was 758.2 ± 2.1 kg/m3 and the mass density (283.15 K, 31769 kPa) was 758.1 ± 2.1 kg/m3. The mass density (283.15 K, 31794 kPa) was 758.1 ± 2.1 kg/m3, the mass density (283.15 K, 31815 kPa) was 758.3 ± 2.1 kg/m3 and the mass density (283.15 K, 31835 kPa) was 758.2 ± 2.1 kg/m3. It also gave a mass density (283.15 K, 31855 kPa) of 758.3 ± 2.1 kg/m3, a mass density (283.15 K, 31878 kPa) of 758.3 ± 2.1 kg/m3 and a mass density (283.15 K, 32055 kPa) of 758.2 ± 2.1 kg/m3. It also gave a mass density (283.15 K, 32091 kPa) of 758.2 ± 2.1 kg/m3, a mass density (283.15 K, 32141 kPa) of 758.3 ± 2.1 kg/m3 and a mass density (283.15 K, 32209 kPa) of 758.4 ± 2.1 kg/m3. The mass density (283.15 K, 32230 kPa) was 758.4 ± 2.1 kg/m3, the mass density (283.15 K, 32248 kPa) was 758.4 ± 2.1 kg/m3 and the mass density (283.15 K, 32268 kPa) was 758.5 ± 2.1 kg/m3. For the same compound, the mass density (283.15 K, 32289 kPa) was 758.5 ± 2.1 kg/m3, the mass density (283.15 K, 32312 kPa) was 758.4 ± 2.1 kg/m3 and the mass density (283.15 K, 32330 kPa) was 758.4 ± 2.1 kg/m3. For the same compound, the mass density (283.15 K, 32357 kPa) was 758.5 ± 2.1 kg/m3, the mass density (283.15 K, 32378 kPa) was 758.5 ± 2.1 kg/m3 and the mass density (283.15 K, 32405 kPa) was 758.4 ± 2.1 kg/m3. The mass density (283.15 K, 32427 kPa) was 758.6 ± 2.1 kg/m3, the mass density (283.15 K, 32445 kPa) was 758.5 ± 2.1 kg/m3 and the mass density (283.15 K, 32465 kPa) was 758.5 ± 2.1 kg/m3. The mass density (283.15 K, 32490 kPa) was 758.6 ± 2.1 kg/m3, the mass density (283.15 K, 32511 kPa) was 758.4 ± 2.1 kg/m3 and the mass density (283.15 K, 32535 kPa) was 758.6 ± 2.1 kg/m3. It also gave a mass density (283.15 K, 32559 kPa) of 758.5 ± 2.1 kg/m3, a mass density (283.15 K, 32597 kPa) of 758.6 ± 2.1 kg/m3 and a mass density (283.15 K, 32618 kPa) of 758.6 ± 2.1 kg/m3. It also gave a mass density (283.15 K, 32636 kPa) of 758.6 ± 2.1 kg/m3, a mass density (283.15 K, 32655 kPa) of 758.6 ± 2.1 kg/m3 and a mass density (283.15 K, 32682 kPa) of 758.7 ± 2.1 kg/m3. For the same compound, the mass density (283.15 K, 32708 kPa) was 758.8 ± 2.1 kg/m3, the mass density (283.15 K, 32727 kPa) was 758.6 ± 2.1 kg/m3 and the mass density (283.15 K, 32746 kPa) was 758.7 ± 2.1 kg/m3. For the same compound, the mass density (283.15 K, 32767 kPa) was 758.6 ± 2.1 kg/m3, the mass density (283.15 K, 32793 kPa) was 758.6 ± 2.1 kg/m3 and the mass density (283.15 K, 32811 kPa) was 758.7 ± 2.1 kg/m3. For the same compound, the mass density (283.15 K, 32827 kPa) was 758.8 ± 2.1 kg/m3, the mass density (283.15 K, 32850 kPa) was 758.7 ± 2.1 kg/m3 and the mass density (283.15 K, 32869 kPa) was 758.7 ± 2.1 kg/m3. For the same compound, the mass density (283.15 K, 32894 kPa) was 758.7 ± 2.1 kg/m3, the mass density (283.15 K, 32922 kPa) was 758.8 ± 2.1 kg/m3 and the mass density (283.15 K, 32944 kPa) was 758.8 ± 2.1 kg/m3. It also gave a mass density (283.15 K, 32966 kPa) of 758.7 ± 2.1 kg/m3, a mass density (283.15 K, 32989 kPa) of 758.9 ± 2.1 kg/m3 and a mass density (283.15 K, 33018 kPa) of 758.8 ± 2.1 kg/m3. The mass density (283.15 K, 33037 kPa) was 758.9 ± 2.1 kg/m3, the mass density (283.15 K, 33062 kPa) was 758.7 ± 2.1 kg/m3 and the mass density (283.15 K, 33085 kPa) was 758.9 ± 2.1 kg/m3. For the same compound, the mass density (283.15 K, 33107 kPa) was 758.9 ± 2.1 kg/m3, the mass density (283.15 K, 33133 kPa) was 759 ± 2.1 kg/m3 and the mass density (283.15 K, 33155 kPa) was 758.9 ± 2.1 kg/m3. For the same compound, the mass density (283.15 K, 33178 kPa) was 759 ± 2.1 kg/m3, the mass density (283.15 K, 33200 kPa) was 759.1 ± 2.1 kg/m3 and the mass density (283.15 K, 33220 kPa) was 759 ± 2.1 kg/m3. For the same compound, the mass density (283.15 K, 33249 kPa) was 759 ± 2.1 kg/m3, the mass density (283.15 K, 33275 kPa) was 759 ± 2.1 kg/m3 and the mass density (283.15 K, 33295 kPa) was 759 ± 2.1 kg/m3. The mass density (283.15 K, 33544 kPa) was 759.2 ± 2.1 kg/m3, the mass density (283.15 K, 33573 kPa) was 759.1 ± 2.1 kg/m3 and the mass density (283.15 K, 33592 kPa) was 759.1 ± 2.1 kg/m3. The mass density (283.15 K, 33621 kPa) was 759.2 ± 2.1 kg/m3, the mass density (283.15 K, 33651 kPa) was 759.1 ± 2.1 kg/m3 and the mass density (283.15 K, 33667 kPa) was 759.3 ± 2.1 kg/m3. The mass density (283.15 K, 33690 kPa) was 759.3 ± 2.1 kg/m3, the mass density (283.15 K, 33707 kPa) was 759.1 ± 2.1 kg/m3 and the mass density (283.15 K, 33737 kPa) was 759.2 ± 2.1 kg/m3. For the same compound, the mass density (283.15 K, 33761 kPa) was 759.3 ± 2.1 kg/m3, the mass density (283.15 K, 33781 kPa) was 759.2 ± 2.1 kg/m3 and the mass density (283.15 K, 33805 kPa) was 759.2 ± 2.1 kg/m3. The mass density (283.15 K, 33822 kPa) was 759.3 ± 2.1 kg/m3, the mass density (283.15 K, 33852 kPa) was 759.2 ± 2.1 kg/m3 and the mass density (283.15 K, 33873 kPa) was 759.3 ± 2.1 kg/m3. For the same compound, the mass density (283.15 K, 33897 kPa) was 759.2 ± 2.1 kg/m3, the mass density (283.15 K, 33922 kPa) was 759.3 ± 2.1 kg/m3 and the mass density (283.15 K, 33943 kPa) was 759.4 ± 2.1 kg/m3. For the same compound, the mass density (283.15 K, 33964 kPa) was 759.4 ± 2.1 kg/m3, the mass density (283.15 K, 33982 kPa) was 759.3 ± 2.1 kg/m3 and the mass density (283.15 K, 34002 kPa) was 759.4 ± 2.1 kg/m3. For the same compound, the mass density (283.15 K, 34022 kPa) was 759.4 ± 2.1 kg/m3, the mass density (283.15 K, 34045 kPa) was 759.4 ± 2.1 kg/m3 and the mass density (283.15 K, 34063 kPa) was 759.5 ± 2.1 kg/m3. For the same compound, the mass density (283.15 K, 34081 kPa) was 759.3 ± 2.1 kg/m3, the mass density (283.15 K, 34104 kPa) was 759.4 ± 2.1 kg/m3 and the mass density (283.15 K, 34127 kPa) was 759.6 ± 2.1 kg/m3. For the same compound, the mass density (283.15 K, 34148 kPa) was 759.4 ± 2.1 kg/m3, the mass density (283.15 K, 34169 kPa) was 759.4 ± 2.1 kg/m3 and the mass density (283.15 K, 34195 kPa) was 759.5 ± 2.1 kg/m3. The mass density (283.15 K, 34214 kPa) was 759.5 ± 2.1 kg/m3, the mass density (283.15 K, 34237 kPa) was 759.6 ± 2.1 kg/m3 and the mass density (283.15 K, 34264 kPa) was 759.5 ± 2.1 kg/m3. For the same compound, the mass density (283.15 K, 34311 kPa) was 759.6 ± 2.1 kg/m3, the mass density (283.15 K, 34339 kPa) was 759.5 ± 2.1 kg/m3 and the mass density (283.15 K, 34359 kPa) was 759.6 ± 2.1 kg/m3. For the same compound, the mass density (283.15 K, 34447 kPa) was 759.6 ± 2.1 kg/m3, the mass density (283.15 K, 34478 kPa) was 759.7 ± 2.1 kg/m3 and the mass density (283.15 K, 34490 kPa) was 759.6 ± 2.1 kg/m3. It also gave a mass density (283.15 K, 34504 kPa) of 759.7 ± 2.1 kg/m3, a mass density (283.15 K, 34514 kPa) of 759.7 ± 2.1 kg/m3 and a mass density (283.15 K, 34530 kPa) of 759.6 ± 2.1 kg/m3. The mass density (283.15 K, 34544 kPa) was 759.7 ± 2.1 kg/m3, the mass density (283.15 K, 34551 kPa) was 759.7 ± 2.1 kg/m3 and the mass density (283.15 K, 34558 kPa) was 759.6 ± 2.1 kg/m3. It also gave a mass density (283.15 K, 34561 kPa) of 759.7 ± 2.1 kg/m3, a mass density (283.15 K, 34564 kPa) of 759.8 ± 2.1 kg/m3 and a mass density (283.15 K, 34567 kPa) of 759.6 ± 2.1 kg/m3. The mass density (293.14 K, 635 kPa) was 730.3 ± 2 kg/m3, the mass density (293.14 K, 660 kPa) was 730.5 ± 2 kg/m3 and the mass density (293.14 K, 720 kPa) was 730.4 ± 2 kg/m3. The mass density (293.14 K, 803 kPa) was 730.5 ± 2 kg/m3, the mass density (293.14 K, 34330 kPa) was 753.1 ± 2.1 kg/m3 and the mass density (293.14 K, 34351 kPa) was 753.1 ± 2.1 kg/m3. The mass density (293.14 K, 34380 kPa) was 753.2 ± 2.1 kg/m3, the mass density (293.14 K, 34400 kPa) was 753.1 ± 2.1 kg/m3 and the mass density (293.14 K, 34412 kPa) was 753.3 ± 2.1 kg/m3. The mass density (293.14 K, 34420 kPa) was 753.2 ± 2.1 kg/m3, the mass density (293.14 K, 34428 kPa) was 753.1 ± 2.1 kg/m3 and the mass density (293.14 K, 34437 kPa) was 753.2 ± 2.1 kg/m3. The mass density (293.14 K, 34451 kPa) was 753.2 ± 2.1 kg/m3, the mass density (293.14 K, 34459 kPa) was 753.2 ± 2.1 kg/m3 and the mass density (293.14 K, 34471 kPa) was 753.2 ± 2.1 kg/m3. For the same compound, the mass density (293.14 K, 34481 kPa) was 753.1 ± 2.1 kg/m3, the mass density (293.14 K, 34491 kPa) was 753.1 ± 2.1 kg/m3 and the mass density (293.14 K, 34504 kPa) was 753.2 ± 2.1 kg/m3. It also gave a mass density (293.14 K, 34517 kPa) of 753.2 ± 2.1 kg/m3, a mass density (293.14 K, 34527 kPa) of 753.2 ± 2.1 kg/m3 and a mass density (293.14 K, 34537 kPa) of 753.3 ± 2.1 kg/m3. It also gave a mass density (293.14 K, 34543 kPa) of 753.2 ± 2.1 kg/m3 and a mass density (293.14 K, 34545 kPa) of 753.3 ± 2.1 kg/m3.
